Laboratory results from US10393730B2, “Energy malnutrition evaluation for liver disease test subject” (OTSUKA PHARMACEUTICAL CO., LTD., priority 2014, dated 2019).

Legend:
[1] = non-fasting period and fasting period, control group versus liver cirrhosis model group, 2 mL/kg i.v., 0-120 minutes
Experimental: CCl4 (olive oil: CCl4=1:1) was administered subcutaneously to the dorsal regions of male SD rats (10 weeks of age: n=3) in an amount of 2 mL/kg twice a week for 12 weeks, thereby creating liver cirrhosis model rats. With a biogas analysis device (product name: Oxymax, Columbus Instruments), respiratory quotient and energy consumption of untreated rats (control group) and liver cirrhosis model rats (liver cirrhosis model group) were measured and calculated according to the instructions of the device.
Further, both the untreated rats and the liver cirrhosis model rats were fed from 19:00 on Day 1 of the test to 13:00 on Day 3, and were fasted from 13:00 on Day 3 to 13:00 on Day 4, as shown in FIG. 1 shown later. During the non-fasting period, the rats were allowed free access to feed (product name: CRF-1, Oriental Yeast Co., Ltd.). […]
The above-prepared ^13C-palmitic acid-containing composition was individually intravenously administered to the liver cirrhosis model rats and untreated rats prepared in the above Reference Example in an amount of 2 mL/kg (n=3). […] Expired air was collected at time points between before administration (0 minutes) to 120 minutes after the administration of ^13C-palmitic acid-containing composition. Δ^13C(‰) was measured and determined using an expired air analysis mass spectrometer (ABCA: product of Sercon).

[2] = set-up: species or system male SD rats (liver cirrhosis model rats and untreated rats); conditions: rat, in vivo, iv
Experimental: U-^13C-glucose (MW: 186, Cambridge Isotope Laboratories, Inc.) was dissolved in a physiological saline solution at a concentration of 50 μmol/ml, thereby preparing a ^13C-glucose-containing composition.

| SMILES | expired air reaction (Δ^13C(‰)) [1] | expired air reaction (Δ^13C(‰)), day versus night [2] |
| --- | --- | --- |
| CCCCCCCCCCCCCCC[13C](=O)[O-].[Na+] [1-^13C-sodium palmitate] | showed similar transitions in the control group and the liver cirrhosis model group |  |
| OC[C@H]1OC(O)[C@H](O)[C@@H](O)[C@@H]1O (some centres unmarked) [^13C-glucose-containing composition, U-^13C-glucose] |  | a significant difference in the expired air reaction (Δ^13C(‰)) was not observed between day and night |
